Reference: patent US5521170A, “Benzamide derivatives and pharmaceutical composition comprising the same” (Fujisawa Pharmaceutical Co., Ltd., priority 1993, dated 1996)

These molecules were tested against T1, Vasopressin 1 (Vl) receptor (Rattus norvegicus, UniProt P30560) (assay: Vasopressin 1 (Vl) receptor binding). Conditions: rat liver membrane; 0.5 nM ^3H-vasopressin; 60 minutes at 25° C.; pH 7.4.
T1 construct: The rat liver was dissected and homogenized; from tissue; host or cells: rat liver membranes
T1 sequence (P30560 whole entry): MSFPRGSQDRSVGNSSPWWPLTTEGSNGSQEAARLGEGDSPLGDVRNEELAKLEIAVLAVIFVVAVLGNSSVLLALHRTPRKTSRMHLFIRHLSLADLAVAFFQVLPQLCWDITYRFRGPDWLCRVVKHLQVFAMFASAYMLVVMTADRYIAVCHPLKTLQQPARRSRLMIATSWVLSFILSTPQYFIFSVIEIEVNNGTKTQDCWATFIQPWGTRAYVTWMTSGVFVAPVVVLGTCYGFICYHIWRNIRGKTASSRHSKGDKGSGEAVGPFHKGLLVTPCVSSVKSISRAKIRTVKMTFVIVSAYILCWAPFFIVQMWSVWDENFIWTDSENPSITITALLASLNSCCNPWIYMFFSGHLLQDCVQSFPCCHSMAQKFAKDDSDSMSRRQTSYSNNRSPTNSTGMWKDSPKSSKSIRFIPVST
Description: Vasopressin 1 (Vl) receptor binding
The rat liver was dissected and homogenized in 10 volume of ice cold 250 mM sucrose buffer containing 25 mM Tris-HCl (pH 7.4), 5 mM MgCl2 and 0.1 mM phenylmethylsulfonyl fluoride (PMSF). The homogenate was centrifuged at 1000 xg for 10 minutes. The supernatant fraction was separated and centrifuged at 45,000 xg for 30 minutes. The remaining pellet was resuspended in 10 volume of ice cold 100 mM Tris-HCl (pH 7.4) buffer (containing 5 mM MgCl2, 0.1% bovine serum albumin and 0.1 mM PMSF), and centrifuged at 45,000 xg for 30 minutes again. The final pellet was resuspended in 100 mM Tris-HCl buffer. The resulting membrane preparation was used immediately for the binding assay.
Competition assays were conducted at equilibrium (60 minutes at 25° C.) by using 0.5 nM ^3 H-vasopressin ([phenylalanyl-3,4,5-^3 H]-vasopression; 40-87 Ci/mmol; New England Nuclear) in 100 mM Tris-HCl (pH 7.4) buffer. Nonspecific binding was determined by using 1 μM [d(CH2)5, Tyr^2 (Me), Arg^8 ]-vasopressin (Peptide institute, Japan). After incubation, reaction was terminated by adding 5 ml of ice-cold 100 mM Tris-HCl (pH 7.4) buffer, and then filtered rapidly through Whatman glass filter (GF/C). […] The glass filter was mixed with liquid scintilation cocktail, and radioactivity was counted in a liquid scintilation counter (TRI-CARB 4530, Packard). […]

IC50	SMILES
3.9 nM	Cc1ccc(-c2ccccc2C(=O)Nc2ccc(C(=O)N3CCCCc4ccccc43)cc2)cc1 [2-2), 1-{4-[2-(4-Methylphenyl)benzoylamino]benzoyl}-2,3,4,5-tetrahydro-1H-benzazepine]
4.4 nM	Cc1ccccc1-c1ccccc1C(=O)Nc1ccc(C(=O)N2CCCC(N(C)C)c3ccccc32)cc1 (centres unmarked) [2-21), 5-Dimethylamino-1-{4-[2-(2-methylphenyl)benzoylamino]benzoyl}-2,3,4,5-tetrahydro-1H-benzazepine]

These molecules were tested against T2, Vasopressin 2 (V2) receptor (Rattus norvegicus, UniProt Q00788) (assay: Vasopressin 2 (V2) receptor binding). Conditions: male rat kidney medullopapillary membrane; 0.5 nM ^3H-vasopressin; 2 hours at 25° C.; pH 7.4.
T2 construct: The medullopapillary region of male rat kidey was dissected; from tissue; host or cells: male rat kidney medullopapillary membranes
T2 sequence (Q00788 whole entry): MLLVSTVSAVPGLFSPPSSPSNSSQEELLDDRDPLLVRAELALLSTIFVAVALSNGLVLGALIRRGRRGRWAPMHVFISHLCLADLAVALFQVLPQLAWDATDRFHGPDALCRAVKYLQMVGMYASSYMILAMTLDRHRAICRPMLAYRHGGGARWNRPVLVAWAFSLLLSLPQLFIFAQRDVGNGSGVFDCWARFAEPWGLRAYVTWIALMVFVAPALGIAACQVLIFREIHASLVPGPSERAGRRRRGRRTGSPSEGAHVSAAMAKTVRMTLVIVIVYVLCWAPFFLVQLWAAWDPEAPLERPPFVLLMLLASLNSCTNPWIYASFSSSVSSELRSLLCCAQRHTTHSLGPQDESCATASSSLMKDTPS
Description: Vasopressin 2 (V2) receptor binding
The medullopapillary region of male rat kidey was dissected and homogenized in 10 volume of ice cold 250 mM sucrose buffer containing 25 mM Tris-HCl (pH 7.4), 5 mM MgCl2 and 0.1 mM phenylmethylsulfonyl fluoride (PMSF). The homogenate was centrifuged at 500 xg for 5 minutes. The supernatant fraction was separated and centrifuged at 45,000 xg for 30 minutes. The remaining pellet was resuspended in 10 volume of ice cold 100 mM Tris-HCl (pH 7.4) buffer (containing 5 mM MgCl2, 0.1% bovine serum albumin and 0.1 mM PMSF), and centrifuged at 45,000 xg for 30 minutes again. The final pellet was resuspended in 100 mM Tris-HCl buffer. The resulting membrane preparation was used immediately for the binding assay.
Competition assays were conducted at equilibrium (2 hours at. 25° C.) by using 0.5 nM ^3 H-vasopression ([phenylalanyl-3,4,5-3H]-vasopression; 40-87 Ci/mmol; New England Nuclear) in 100 mM Tris-HCl (pH 7.4) buffer. Nonspecific binding was determined by using 1 μM [d(CH2)5, D-Ile^2 Ile^4 Arg8]-vasopressin (Peninsula Laboratories USA). After incubation, reaction was terminated by adding 5 ml of ice-cold 100 mM Tris-HCl (pH 7.4) buffer, and then filtered rapidly through Whatman glass filter (GF/C). The filter was washed 2 times with the same buffer (5 ml). The glass filter was mixed with liquid scintilation cocktail, and radioactivity was counted in a liquid scintilation counter (TRI-CARB 4530, Packard). Competition activity of the test compound was represented by IC50 values.

SMILES	IC50
Cc1ccc(-c2ccccc2C(=O)Nc2ccc(C(=O)N3CCC(=O)N(CC(=O)N4CCN(C)CC4)c4cc(Cl)ccc43)cc2)cc1 [16-9), 8-Chloro-5-{4-[2-(4-methylphenyl)benzoylamino]benzoyl}-1-[(4-methyl-1-piperazinyl)carbonylmethyl]-1,3,4,5-tetrahydro-1,5-benzodiazepin-2(2H)-one]	3.3 nM
Cc1ccc(-c2ccccc2C(=O)Nc2ccc(C(=O)N3CCC(=O)N(CC(=O)N4CCN(C)CC4)c4cc(C)ccc43)cc2)cc1 [16-14), 8-Methyl-5-{4-[2-(4-methylphenyl)benzoylamino]benzoyl}-1-[(4-methyl-1-piperazinyl)carbonylmethyl]1,3,4,5-tetrahydro-1,5-benzodiazepin-2(2H)-one]	2.7 nM

The next lines start with the values.

IC50	SMILES
3 nM	Cc1ccc(-c2ccccc2C(=O)Nc2ccc(C(=O)N3CC(=O)Nc4ccccc43)cc2)cc1 [2-4), 1-{4-[2-(4-Methylphenyl)benzoylamino]benzoyl}-1,2,3,4-tetrahydroquinoxalin-3-one]
2.3 nM	Cc1ccc(-c2ccccc2C(=O)Nc2ccc(C(=O)N3CCC(=O)N(CC(=O)N4CCN(C)CC4)c4ccccc43)cc2)c(C)c1 [16-3), 5-{4-[2-(2,4-Dimethylphenyl)benzoylamino]benzoyl}-1-[(4-methyl-1-piperazinyl)carbonylmethyl]-1,3,4,5-tetrahydro-1,5-benzodiazepin-2 (2H)-one]
5.1 nM	Cc1ccc(-c2ccccc2C(=O)Nc2ccc(C(=O)N3CCCC(CC(=O)N4CCN(C)CC4)c4ccccc43)cc2)cc1 (centres unmarked) [16-69), 1-{4-[2-(4-Methylphenyl)benzoylamino]benzoyl}-5-(4-methyl-1-piperazinylcarbonyl)methyl-2,3,4,5-tetrahydro-1H-1-benzazepine]
1.8 nM	Cc1ccc(-c2ccccc2C(=O)Nc2ccc(C(=O)N3CCC(=O)N(CC(=O)N4CCN(C)CC4)c4ccccc43)cc2)cc1 [Example 15, 5-{4-[2-(4-methylphenyl)benzoylamino]benzoyl}-1-[(4-methyl-1-piperazinyl)carbonylmethyl]-1,3,4,5-tetrahydro-1,5-benzodiazepin-2(2H)-one]
